In experiment [1] the test system is NIH-OVCAR-3 (HTB-161) cisplatin-resistant human ovarian cancer cells. The experiment is described as follows: MTT cell viability assay in cisplatin-resistant HTB-161 cells. It is filed as cell-based. The following applies: for effect of combination with cisplatin on viability and drug resistance: cisplatin combined with electron donor (100 μM TMPD).
Description: Briefly, HTB-161 cells were plated at a density of 7×10^3 cells/well in 96-well plates. […] After incubation for specified times at 37° C. in a humidified incubator, 20 μL of MTT (5 mg/mL in PBS) were added to each well, and cells were incubated for a further 4 h. After removal of the medium, 100 μL DMSO was added to each well. The absorbance was recorded on a microplate reader at the wavelength of 540 nm.
Experiment [2] concerns HeLa (cervical cancer) cells. Description: MTT cell survival assay in HeLa cells. It is filed as cell-based, human.
Description: Thus, appropriate doses of the molecular promoters were selected by initially screening for toxicity. […] The viability of cells was measured by MTT assay, one of the most commonly used cell viability assays. This method involves the conversion of MTT (3-(4,5-dimethylthiazol-2-yl)-2,5-diphenyltetrazolium bromide) to an insoluble formazan by metabolically-active cells (live cells). Using a solubilizing agent, the formazan is dissolved and its absorbance measured, giving indication to the number of cells that survive.
Cells were cultured in 96-well plates (5×10^3 cells/well) for 24 h. The culture medium was replaced by new culture medium and incubated for 24 h with varying drug concentrations. After the drug treatment, cells were replaced with new medium containing 1.2 mM MTT (Sigma) and incubated for 4 h. The medium was then removed and the formazan crystals solubilized by 100 μL DMSO. The surviving fraction was determined by measuring the absorbance at 540 nm using a Multiskan Spectrum UV/Vis microplate reader (Thermo Scientific), which is directly proportional to the number of viable cells.
The test system of experiment [3] is HeLa (cervical cancer) cells. Description: APO-BrdU TUNEL DNA fragmentation assay (flow cytometry) in HeLa cells. It is filed as cell-based, human. The following applies: for cells with DNA fragmentation (BrdU-positive): 48 h. A general note: In flow cytometry, cells or beads pass a laser one at a time.
Description: DNA fragmentation was detected using a standard apoptosis assay, APO-BrdU TUNEL, which utilizes the fact that DNA strand breaks expose a large number of 3′-OH ends, which act as a starting point for terminal deoxynucleotidyl transferase (TdT) to add deoxyribonucleotides. The break sites are labeled by the addition of BrdUTP in the presence of the TdT enzyme. An anti-BrdU antibody conjugated with a fluorescent molecule is added to detect the strand breaks by measuring their fluorescence intensities using flow cytometry. The cell cycle distribution can also be detected simultaneously from the ordinate axis of the generated dot plot (with the BrdU-content on the y-axis), where the events with fluorescence intensity above the background indicate the cells with fragmented DNA (within upper box).
Cells were cultured in 25 cm^2 flasks (˜8×10^7 cells/flask) for 24 h. The culture medium was replaced by new medium and incubated for 48 h with varying drug concentrations. Both floating and adherent cells were harvested by trypsinization and fixed using 1% paraformaldehyde for 30 minutes. Cells were then permeabilized using 70% ice-cold ethanol for at least 24 h at −20° C. Samples were prepared for DNA fragmentation measurements using the APO-BrdU DNA Fragmentation Assay (Invitrogen). To label the DNA, ethanol was removed and cells were resuspended in 50 μL of TUNEL reaction buffer containing terminal deoxynucleotidyl transferase and BrdUTP for 1 h at 37° C., shaking every 15 min. After overnight room temperature incubation, the cells were then incubated with Alexa Fluor 488-conjugated BrdUTP-antibody for 30 min at room temperature. Cells were also stained with propidium iodide (5 μg/mL) and incubated with RNase A for 30 min at room temperature to determine the total cellular DNA content. Samples were then analyzed by a Becton-Dickinson FACSVantage SE flow cytometer in pulse processing mode (10 000 cells per sample). Computational analyses were performed using FCS Express software (De Novo Software, Los Angeles, Calif.) to obtain FL1-H versus FL2-A dot plots (log versus linear, respectively), gating on front scatter (FSC) versus side scatter (SSC) to eliminate debris, as well as FL2-A versus FL2-W to eliminate doublets. Experiments were performed independently at least 3 times
DNA fragmentation was measured by using the APO-BrdU TUNEL assay.
Experiment [4] deals with NIH-OVCAR-3 (HTB-161) cisplatin-resistant human ovarian cancer cells. The experiment is described as follows: APO-BrdU TUNEL DNA fragmentation assay (flow cytometry) in HTB-161 cells. The class given is cell-based.
Description: The method based on terminal deoxyribonucleotidyl transferase (TdT)-mediated dUTP nick-end labelling was used to determine the cell apoptosis. […] DNA fragmentation was measured by using the APO-BrdU TUNEL assay. […] After trypsinized, the cells were washed with PBS, were processed for labeling with the deoxythymidine analog 5-bromo-2′-deoxyuridine 5′-triphosphate (BrdUTP), and were incubated with an Alexa Fluor 488 dye-labeled anti-BrdU antibody and propidium iodide by the use of an APO-BrdU™ TUNEL Assay Kit (Invitrogen) as per manufacturer's protocol. The labeled cells were analyzed by flow cytometry.
For experiment [5] the test system is unchanged. Description: Cell cycle analysis by flow cytometry in HTB-161 cells. It is filed as cell-based. The following applies: cisplatin alone or with 100 μM TMPD, 24 h. On the procedure: HTB-161 cells were plated at a density of 2×10^5 per well on six-well plates. […] The cells were trypsinized, washed twice with chilled PBS, and centrifuged. The cell pellet was resuspended in 70% ethanol at −20° C. overnight. The cells were centrifuged at 1,000 rpm for 5 min; the pellet was washed twice with chilled PBS, suspended in 500 μL PBS, and incubated with RNase (20 μg/mL final concentration) at 25° C. for 30 min and with propidium iodide (50 μg/mL final concentration) for an additional 30 minutes. The cells were analyzed by flow cytometry. Flow cytometry was done with a FACS vantage SE (Becton Dickinson). A minimum of 10,000 cells per sample were counted and the DNA histograms were further analyzed by using FCS Express software for cell cycle analysis.

Experiment [6] concerns Plasmid DNA [pGEM 3Zf(−), 3197 kp]. Description: Agarose gel electrophoresis of plasmid DNA damage. The following applies: cisplatin alone, up to 3.0 mM. The class given is biochemical, Escherichia Coli. The source says: The gel electrophoresis was used for quantitative measurements of plasmid DNA damage, characterizing single-strand breaks (SSBs), double-strand breaks (DBSs) and crosslinks (CLs). We also used the γH2AX DNA damage assay (Invitrogen) to detect DSBs of genomic DNA in cancer cells. Briefly, DNA damaging radicals induce phosphorylation of histone variant H2AX (Ser139) forming DNA foci at the site of DNA DSBs. Phosphorylated H2AX aids in the recruitment of proteins responsible for DSB repair.
Aliquots equivalent to 96 ng DNA were removed from the solutions for gel electrophoresis. All aliquots were analyzed with a standard agarose gel electrophoresis method, namely, on 1% neutral TAE agarose gel in TAE running buffer. The gel was prestained with 1 μg/ml ethidium bromide.

SMILES strings stand for the structures. Entries after “also recorded” stand apart in the source; their conditions may differ.

On to `CC1(C)C(/C=C/C=C/C=C/C=C2\N(CCCCS(=O)(=O)[O-])c3ccc4ccccc4c3C2(C)C)=[N+](CCCCS(=O)(=O)[O-])c2ccc3ccccc3c21.[Na+]` [ICG, Indocyanine green], for which, in experiment [1], the “effect of combination with cisplatin on viability and drug resistance” value is given as “rendered cisplatin-resistant tumor cells almost completely sensitive”. In experiment [2] (ICG alone, up to 200 μM), the “toxicity of ICG alone (cell survival)” value was “no significant toxicity”.
Consider `CN(C)c1ccc(N(C)C)cc1` [TMPD, N,N, N′,N′-tetramethyl-p-phenylene diamine], for which the cell viability result in experiment [1] (100 μM TMPD alone) is “slight decrease of the cell viability”. In experiment [1], the “effect of combination with cisplatin on viability and drug resistance” value is “rendered cisplatin-resistant tumor cells almost completely sensitive”. Further, in experiment [3] (100 μM TMPD alone), the “cells with DNA fragmentation (BrdU-positive)” value was determined as 2%. Further, the “DNA fragmentation (BrdU positive cells)” value in experiment [4] (100 μM TMPD alone) was 0.04%. In addition, the “toxicity of TMPD alone (cell survival / viability)” value in experiment [2] (TMPD alone, up to 100 μM) is on record as “very mild toxicity; also recorded: only slightly decreased the cell viability; also recorded: no significant toxicity”.
In the case of `N.N.[Cl][Pt][Cl]` [cisplatin, cis-diamminedichloroplatinum(II)], the “resistance of HTB-161 cells to cisplatin” value in experiment [1] (cisplatin alone, 200-300 uM) is reported as “strong resistance”. In addition, the “distribution of cells in the cell cycle” value in experiment [5] was “accumulation of cells in the G1 phase”. For the same molecule, in experiment [6], the “DNA strand breaks in plasmid DNA” value was “no SSBs and DSBs but intrastrand cross links only; also recorded: intrastrand cross links only, with no SSBs or DSBs”. For the same molecule, the “cells with DNA fragmentation (BrdU-positive)” value in experiment [3] (10 μM CDDP without or with 100 μM TMPD) turned out to be 9%; in experiment [3] (25 μM CDDP without or with 100 μM TMPD), 6%; in experiment [3] (50 μM CDDP without or with 100 μM TMPD), 38%. For the same molecule, the cell cycle arrest entry in experiment [3] (HeLa cells, CDDP as single agent (lower doses) or with TMPD) is listed as “accumulate in the G2/M phase”. In experiment [4] (50 μM cisplatin without or with 100 μM TMPD), the “DNA fragmentation (BrdU positive cells)” value came out at 3.61%. For the same molecule, the “killing of HeLa cells” value in experiment [2] (10 and 20 μM cisplatin alone) came out at 20%. For the same molecule, the cell survival rates entry in experiment [2] (CDDP alone, 24 h) was “decreased the cell survival rates in a dose-dependent manner”.

Values taken from patent publication US20120156311A1, “COMBINATION THERAPY FOR CANCER COMPRISING A PLATINUM-BASED ANTINEOPLASTIC AGENT AND A BIOCOMPATIBLE ELECTRON DONOR” (priority 2009, published 2012).
